This note sets out measurements from patent publication US6960594B2, “Thiophene and furan 2,5-dicarboxamides useful in the treatment of cancer” (Shire BioChem Inc., priority 1998, dated 2005).

Experiment [1] concerns the target T1, αvβ3 (Homo sapiens, UniProt P05106+P06756).
T1 construct: expressed in transfected cells; host or cells: K562
As to the kind of experiment: Cell adhesion assay, K562-tr on osteopontin. The format is cell-based. The note with it: K562 transfected with αvβ3, adhesion to osteopontin, 1 hour; read-out: IC50 K562-tr Osteopontin (αvβ3). On the procedure:
(§1) The wells of 96-well plates (Immunolon) were coated, by incubation overnight at 4° C., with 5 ug/mL vitronectin, 2 ug/mL osteopontin, or fibronectin or 10 mg/mL BSA in PBS. The protein solution was flicked out and the wells were blocked with 10 mg/mL BSA (0.1 mL) for 1-2 hours at 37° C. […] Cells were lifted with trypsin-EDTA and washed two times with Hank's balanced salt solution minus cations (Sigma) supplemented with 1 mM MgCl2 Cells (75,000 cells/well) were added to coated plates in triplicate and allowed to attach at 37° C. for 1 hour in the presence or absence of specific antibodies (5 ug/mL) or 10-fold dilutions of compounds of interest starting at 10 uM. Nonadherent cells were removed by gentle washing twice with PBS. The adherent cells were solubilized with 1% triton x-100 and detected using a fluorescence plate reader (DYNEX Technologies). The number of attached cells was calculated based upon standard curves for each cell line used in the experiment.

The target in experiment [2] is T2, αvβ5 (Homo sapiens, UniProt P06756+P18084).
T2 construct: Cells HT29, K562, or K562 transfected with αvβ3; endogenous in cells; host or cells: HT29
As to the kind of experiment: Cell adhesion assay, HT29 on vitronectin. The class given is cell-based. The note with it: HT29 cells, adhesion to vitronectin, 1 hour; read-out: IC50 HT29 Vitronectin (αvβ5). On the procedure: as §1

The target of experiment [3] is T3, α5β1 (Homo sapiens, UniProt P05556+P08648).
T3 construct: Cells HT29, K562, or K562 transfected with αvβ3; endogenous in cells; host or cells: K562
As to the kind of experiment: Cell adhesion assay, K562 on fibronectin. The following applies: K562 cells, adhesion to fibronectin, 1 hour. The format is cell-based. The method, then:
The wells of 96-well plates (Immunolon) were coated, by incubation overnight at 4° C., with 5 ug/mL vitronectin, 2 ug/mL osteopontin, or fibronectin or 10 mg/mL BSA in PBS. The protein solution was flicked out and the wells were blocked with 10 mg/mL BSA (0.1 mL) for 1-2 hours at 37° C. Cells HT29, K562, or K562 transfected with αvβ3 (Blystone et al., 1994) were loaded with a fluorescent marker, 5-chloromethylfluorescein diacetate (Molecular Probes, Eugene, Oreg.) for 1 hour at 37° C., then incubated in fresh medium without the fluorescent marker for 1 hour. Cells were lifted with trypsin-EDTA and washed two times with Hank's balanced salt solution minus cations (Sigma) supplemented with 1 mM MgCl2 Cells (75,000 cells/well) were added to coated plates in triplicate and allowed to attach at 37° C. for 1 hour in the presence or absence of specific antibodies (5 ug/mL) or 10-fold dilutions of compounds of interest starting at 10 uM. Nonadherent cells were removed by gentle washing twice with PBS. The adherent cells were solubilized with 1% triton x-100 and detected using a fluorescence plate reader (DYNEX Technologies). The number of attached cells was calculated based upon standard curves for each cell line used in the experiment. Non-specific cell attachment (attachment to wells coated with BSA) was always less than 5%.

In experiment [4] the test system is Chick chorioallantoic membrane (CAM) capillary formation driven by VPF/VEGF165. As to the kind of experiment: Chick chorioallantoic membrane (CAM) mesh assay. The format is in vivo, chicken. The following applies: significant if >25%. On the procedure:
Fertilized white leghorn chicken eggs (SPAFAS Inc., Norwich, Conn.) were received at day 0 and incubated for 3 days at 37 C with constant humidity. On day 3, eggs were rinsed with 70% ethanol and opened into 100 mm^2 tissue culture coated Petri dishes under aseptic conditions. The embryos were then returned to a humidified 38 C incubator for 7-9 additional days.
Vitrogen (Collagen Biomaterials, Palo Alto, Calif.) at a final concentration of 0.73 mg/mL and Matrigel (Becton Dickinson, Bedford, Mass.) at a final concentration of 10 mg/mL was directly pipetted onto Nylon meshes with 250 μm^2 openings which were cut into 4 mm×4 mm squares and autoclaved. Polymerization of meshes were under aseptic conditions, on bacteriological Petri dishes. The polymerization conditions for each substrate were identical; after mixing with or without 250 μg of VPF/VEGF165 (Peprotech, Rocky Hill, N.J.) and/or compounds of interest, 40 μL were pipetted onto each mesh in a bacteriological Petri dish. The Petri dish was placed in a humidified 37 C incubator with 5% CO2 for 30 minutes to allow polymerization followed by an incubation at 4° C. for 2 hours.
In a tissue culture enclosure, meshes were placed onto the periphery of the CAM of a day 12-14 embryo, excluding areas containing major vessels. The embryos were then returned to the humidified 38° C. incubator with 3% CO2 for 24 to 48 additional hours.
Embryos were removed from the incubator and meshes were viewed under a dissecting microscope for gross evaluation. Injection of 400 μL FITC dextran, MW 2,000,000 (Sigma, St. Louis, Mo.) through glass microcapillary tubes by infusion into the umbilical vein was performed at a rate of 200 μl per minute. The FITC dextran was allowed to circulate for 5 minutes and 3.7% formaldehyde in PBS was applied directly on each mesh. The embryos were then incubated at 40° C. for 5 minutes and the meshes were dissected off the CAM and fixed in 3.7% formaldehyde for 10 minutes to overnight.
After fixation, meshes were mounted on slides with 90% glycerol in PBS and visualized on an inverted fluorescence microscope. A Nikon Diaphot with a Sony DXC-151A camera attached to the side port was used for capture of images and analysis was with the NIH Image 1.61 software program. For each mesh, 5 random staggered images (approximately 600 μm each) were captured. The areas of high intensity were highlighted and measured. Results are expressed as ability to suppress capillary formation after subtraction from negative control. Values were calculated as a inhibition, considering 100% the capillary density achieved by VPF in the presence of vitrogen alone minus the bakground levels in the absence of VPF. Negative values indicated angiogenic stimulation above the VPF positive control.

Experiment [5] deals with Human non small-cell lung cancer cell line H460. As to the kind of experiment: Inhibition of metastasis in angiomouse/metamouse human lung cancer model of H460. The class given is in vivo, athymic BALB/c nude mice. The following applies: Group B, 10 mg/kg SC 3 times/week. On the procedure: Male and female athymic BALB/c nude mice between 4 and 5 weeks of age were used. The animals were bred and maintained in an HEPA-filtered environment with cages, food and bedding sterilized by autoclaving. The breeding pairs were obtained from the Charles River Laboratories (Wilmington, Mass.). The animal diets were obtained from Harlan Teklab (Madison, Wis.). Ampicillin (Sigma, St Louis, Mo.) 5.0% (v/v) was added to the autoclaved drinking water.
Compound VII was tested and AGM-1470 (chloroacetyl-(3R,4S,5S,6R)-5-methoxy-4-[(2R,3R)-2-methyl-3-(3-methyl-2-butenyl)oxiranyl]-1-oxaspiro[2.5]oct-6-yl ester carbamic acid) was used as a positive control. [drawing 51] The compounds were dissolved using PEG400 with heating and sonicatin. The solutions were then diluted with saline to obtain the desired concentrations (30%/70%) and stored at −20° C.
Human non small-cell lung cancer cell line H460 with expression of green fluorescent protein was obtained from the National Cancer Institute. The cells were transfected with vectors carrying the green fluorescent protein (GFP) gene. The cell line was propagated by subcutaneous implantation in nude mice.
Test animals were transplanted by surgical orthotopic implantation (SOI) using fragments harvested from subcutaneaous tumor stock animals. The animals were anesthetized with isoflurane and the surgical area was sterilized using iodine solution and alcohol. A left thoracotomy was made along the 4th intercostal space using a pair of scissors. Two pieces of H460 tumor tissue of one cubic millimiter each were sutured to the left lung using an 8-0 nylon surgical suture. The thorax was closed using a sterile 6-0 silk suture. A sterile 3-cc syringe with a 25-gauge needle was used to remove the air and inflate the lung. All surgical and animal manipulations and procedures were conducted under HEPA-filtered laminar flow hoods.
Extra numbers of mice were transplanted to compensate for postsurgical losses. The orthotopically transplanted animals used were selected to establish groups of similar mean body weight. Groups for each of the cohort conditions wre randomly chosen. The cohort was grouped as follows. A total of 10 mice were used for each dosage regimen. Administration of test compounds and vehicle by subcutaneous injection was begun three days after the orthotopic implantation.
Two animals for each treatment group were sacrificed at day-14 after orthotopic implantation of H460. The remaining animals for each group were sacrificed at day-28 after implantation. The sacrificed animals were evaluated for primary and secondary tumors. Gross examination for distant metastasis was conducted at necropsy. Tissue samples of the primary tumor and those from relevant organs such as the lung, the liver and the lymph nodes wre processed through standards procedures of hematoxylin and eosin staining for subsequent microscopic examination.
The mediastinal lymph nodes, the liver and the lung in each animal were collected. The sampled tissues were sectioned and stained, then microscopically examined. The fisher-exact test was performed to compare distant metastasis to these organs in the treated and the controls. […]

In experiment [6] the target is T4, placental αvβ3 (Homo sapiens, UniProt P05106+P06756).
T4 construct: placental αvβ3 at 0.5 ug/mL; from tissue; host or cells: placenta
As to the kind of experiment: Fibrinogen binding to immobilized αvβ3. The note with it: biotinylated-fibrinogen (10 nM) binding to immobilized αvβ3; read-out: IC50 αvβ3. On the procedure: (§2) The wells of plastic microtiter plates were coated overnight at 4° C. with purified active αIIbβ3 (Calbiochem) or placental αvβ3 at 0.5 ug/mL (100 uL/well) in a buffer containing 150 mM NaCl, 20 mM Tris, pH 7.4, 1 mM MgCl2, 0.2 mM MnCl2, and including 1 mM CaCl2 for αIIbβ3. Blocking of nonspecific sites was achieved by incubating the wells with 35 mg/mL bovine serum albumin (BSA) for at least 2 hours at 37° C. Biotinylated-fibrinogen (10 nM) was added in 0.2 mL binding buffer (100 mM NaCl, 50 mM Tris, pH 7.4, 1 mM MgCl2, 0.2 mM MnCl2 and 1 mg/mL BSA including 1 mM CaCl2 for αIIbβ3) to the wells in triplicate in the absence or presence of increasing concentrations of compounds of interest (0.001-100 uM) and further incubated for 2 hours at 37° C. Nonbound fibrinogen was removed by five washes with binding buffer. Avidin conjugated to alkaline phosphatase (Sigma), diluted in binding buffer, was added and incubated for two hours at 37° C. The plates were washed five times with binding buffer, and after addition of the substrate PNPP (Pierce), the enzyme activity was measured by the absorbance at 405 nm.

For experiment [7], the target named is T5, GP IIb-IIIa (αIIbβ3) (Homo sapiens, UniProt P05106+P08514).
T5 construct: purchased Calbiochem
As to the kind of experiment: Fibrinogen binding to immobilized GP IIb-IIIa (αIIbβ3). The following applies: biotinylated-fibrinogen (10 nM) binding to immobilized αIIbβ3; read-out: IC50 αIIbβ3. On the procedure:
as §2

In experiment [8] the test system is HMVEC. Description: Cell proliferation and cytotoxicity MTT assay, HMVEC. The class given is cell-based. The following applies: HMVEC, 72 hours culture. On the procedure: (§3) The wells of microtiter plates were seeded with 2000 cells/well T24, 2500 cells/well HT29 or 5000 cells/well HMVEC (Cell Systems) in 100 uL, followed by an overnight culture for cell adhesion. The next day, the media is supplemented with 100 uL of 10-fold dilution of compound of interest starting at 10 uM. Following culture for 72 hours, 3-(4,5-dimethyl-2-thiazolyl)-2,5-diphenyltetrazolium bromide (MTT; Sigma) at 2 mg/mL was added to each well (50 uL/well) and further incubated for 4 hours at 37° C. The medium was flicked out and 200 uL of a 1:1 solution of ethanol:acetone followed by 25 uL of glycine buffer (0.1 M glycine, 0.1M NaCl, pH 10.5) is added and the color measured by the absorbance at 570 nm.

For experiment [9], the system named is HT29. As to the kind of experiment: Cell proliferation and cytotoxicity MTT assay, HT29. The format is cell-based. The note with it: Homo sapiens, HT-29, 72 hours culture. On the procedure: as §3

Counter-ions that a name gives are not always drawn.

T1 sequence (P06756 31-889 limits assumed): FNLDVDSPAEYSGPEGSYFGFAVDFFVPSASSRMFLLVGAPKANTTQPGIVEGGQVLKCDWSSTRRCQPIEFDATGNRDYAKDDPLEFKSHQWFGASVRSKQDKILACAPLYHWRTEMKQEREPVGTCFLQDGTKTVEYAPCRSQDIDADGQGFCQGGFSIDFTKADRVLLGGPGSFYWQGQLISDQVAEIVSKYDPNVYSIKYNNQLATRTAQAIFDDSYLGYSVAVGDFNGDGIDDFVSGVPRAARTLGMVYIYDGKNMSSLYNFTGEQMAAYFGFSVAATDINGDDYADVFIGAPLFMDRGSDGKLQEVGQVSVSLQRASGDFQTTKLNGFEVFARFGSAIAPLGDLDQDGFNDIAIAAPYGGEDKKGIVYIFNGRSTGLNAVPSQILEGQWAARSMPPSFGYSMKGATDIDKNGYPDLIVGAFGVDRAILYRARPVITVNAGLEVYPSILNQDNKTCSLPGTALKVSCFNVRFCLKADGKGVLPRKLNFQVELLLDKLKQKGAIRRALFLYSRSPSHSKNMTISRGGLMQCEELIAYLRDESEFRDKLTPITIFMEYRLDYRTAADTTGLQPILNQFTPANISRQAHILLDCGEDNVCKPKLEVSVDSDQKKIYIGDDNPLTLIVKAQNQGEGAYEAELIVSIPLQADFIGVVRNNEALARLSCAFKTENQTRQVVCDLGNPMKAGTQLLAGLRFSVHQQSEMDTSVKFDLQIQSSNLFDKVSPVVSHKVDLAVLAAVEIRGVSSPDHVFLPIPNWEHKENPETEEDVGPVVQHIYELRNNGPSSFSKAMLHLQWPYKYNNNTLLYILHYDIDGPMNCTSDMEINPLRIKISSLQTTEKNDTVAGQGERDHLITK
T1 sequence (P06756 891-1048 partner limits assumed): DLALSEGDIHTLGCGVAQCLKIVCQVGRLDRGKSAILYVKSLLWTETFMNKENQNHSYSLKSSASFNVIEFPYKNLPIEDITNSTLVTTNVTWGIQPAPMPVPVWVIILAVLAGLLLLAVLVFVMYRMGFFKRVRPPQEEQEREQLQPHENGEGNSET
T1 sequence (P05106 27-788): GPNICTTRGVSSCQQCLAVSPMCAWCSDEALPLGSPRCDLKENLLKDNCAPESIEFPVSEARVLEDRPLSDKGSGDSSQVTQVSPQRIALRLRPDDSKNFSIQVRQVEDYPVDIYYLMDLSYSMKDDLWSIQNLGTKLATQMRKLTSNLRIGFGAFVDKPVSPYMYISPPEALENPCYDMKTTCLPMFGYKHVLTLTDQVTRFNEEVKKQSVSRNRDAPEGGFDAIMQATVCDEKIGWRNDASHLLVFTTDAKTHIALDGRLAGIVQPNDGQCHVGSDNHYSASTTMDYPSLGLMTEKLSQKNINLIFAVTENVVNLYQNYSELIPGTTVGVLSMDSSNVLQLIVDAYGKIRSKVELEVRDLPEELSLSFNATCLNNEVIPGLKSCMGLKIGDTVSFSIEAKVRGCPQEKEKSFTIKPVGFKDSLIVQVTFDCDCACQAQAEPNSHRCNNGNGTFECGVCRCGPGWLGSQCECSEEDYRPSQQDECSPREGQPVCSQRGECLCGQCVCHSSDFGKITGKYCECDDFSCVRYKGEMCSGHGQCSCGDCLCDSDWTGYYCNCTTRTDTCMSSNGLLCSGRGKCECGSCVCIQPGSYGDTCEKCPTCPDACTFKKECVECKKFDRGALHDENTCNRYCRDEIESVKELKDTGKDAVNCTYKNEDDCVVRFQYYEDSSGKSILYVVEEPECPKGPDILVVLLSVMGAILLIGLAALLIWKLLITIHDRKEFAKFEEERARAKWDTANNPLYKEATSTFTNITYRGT
T3 sequence (P08648 42-894 limits assumed): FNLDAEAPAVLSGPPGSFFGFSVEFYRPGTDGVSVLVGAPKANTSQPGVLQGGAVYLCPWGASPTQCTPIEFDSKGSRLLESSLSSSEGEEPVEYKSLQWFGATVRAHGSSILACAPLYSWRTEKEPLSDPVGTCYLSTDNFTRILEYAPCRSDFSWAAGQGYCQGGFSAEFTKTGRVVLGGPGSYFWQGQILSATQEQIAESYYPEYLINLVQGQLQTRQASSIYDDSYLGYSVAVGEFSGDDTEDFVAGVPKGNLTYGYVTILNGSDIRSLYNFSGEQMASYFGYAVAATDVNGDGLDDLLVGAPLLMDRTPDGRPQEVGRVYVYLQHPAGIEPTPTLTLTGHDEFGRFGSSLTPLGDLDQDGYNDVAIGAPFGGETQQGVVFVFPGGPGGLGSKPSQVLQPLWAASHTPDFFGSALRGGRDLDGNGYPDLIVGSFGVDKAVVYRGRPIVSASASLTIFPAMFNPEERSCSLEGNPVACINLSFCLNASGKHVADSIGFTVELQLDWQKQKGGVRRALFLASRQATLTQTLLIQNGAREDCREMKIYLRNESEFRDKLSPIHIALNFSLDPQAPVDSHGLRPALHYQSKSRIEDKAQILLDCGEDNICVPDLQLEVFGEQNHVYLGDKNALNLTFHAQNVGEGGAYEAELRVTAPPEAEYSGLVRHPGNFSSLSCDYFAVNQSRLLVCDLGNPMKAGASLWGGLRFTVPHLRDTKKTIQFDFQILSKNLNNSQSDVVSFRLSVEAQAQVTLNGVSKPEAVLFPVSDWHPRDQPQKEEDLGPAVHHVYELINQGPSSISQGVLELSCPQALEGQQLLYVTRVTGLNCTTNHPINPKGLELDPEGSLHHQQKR
T3 sequence (P08648 895-1049 partner limits assumed): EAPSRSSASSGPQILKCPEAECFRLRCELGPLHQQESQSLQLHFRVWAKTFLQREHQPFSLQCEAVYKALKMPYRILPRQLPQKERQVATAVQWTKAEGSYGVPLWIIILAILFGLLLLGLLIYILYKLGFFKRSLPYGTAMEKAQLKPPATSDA
T3 sequence (P05556 21-798): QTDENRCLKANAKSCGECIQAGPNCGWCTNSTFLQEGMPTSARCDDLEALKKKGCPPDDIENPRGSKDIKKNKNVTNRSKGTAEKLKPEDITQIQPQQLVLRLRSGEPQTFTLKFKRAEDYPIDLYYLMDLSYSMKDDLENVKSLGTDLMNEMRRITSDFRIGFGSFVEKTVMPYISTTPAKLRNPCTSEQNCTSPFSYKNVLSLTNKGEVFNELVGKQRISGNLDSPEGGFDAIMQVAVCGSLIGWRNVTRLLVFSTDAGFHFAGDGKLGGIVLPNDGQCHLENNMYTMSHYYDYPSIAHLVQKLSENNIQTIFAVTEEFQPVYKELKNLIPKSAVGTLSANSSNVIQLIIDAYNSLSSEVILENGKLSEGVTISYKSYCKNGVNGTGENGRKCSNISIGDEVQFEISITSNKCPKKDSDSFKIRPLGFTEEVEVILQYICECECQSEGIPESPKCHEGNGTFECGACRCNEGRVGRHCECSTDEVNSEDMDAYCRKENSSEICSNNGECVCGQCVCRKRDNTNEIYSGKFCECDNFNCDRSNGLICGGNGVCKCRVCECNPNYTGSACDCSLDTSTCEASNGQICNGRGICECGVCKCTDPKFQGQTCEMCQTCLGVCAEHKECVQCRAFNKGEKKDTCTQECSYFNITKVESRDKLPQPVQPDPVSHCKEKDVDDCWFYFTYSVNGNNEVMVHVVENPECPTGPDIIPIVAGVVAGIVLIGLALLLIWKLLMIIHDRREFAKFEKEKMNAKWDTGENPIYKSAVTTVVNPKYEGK
T4 sequence (P06756 31-889 limits assumed): as the sequence (P06756 31-889 limits assumed) above
T4 sequence (P06756 891-1048 partner limits assumed): as the sequence (P06756 891-1048 partner limits assumed) above
T4 sequence (P05106 27-788): as the sequence (P05106 27-788) above
T2 sequence (P06756 31-889 limits assumed): as the sequence (P06756 31-889 limits assumed) above
T2 sequence (P06756 891-1048 partner limits assumed): as the sequence (P06756 891-1048 partner limits assumed) above
T2 sequence (P18084 24-799): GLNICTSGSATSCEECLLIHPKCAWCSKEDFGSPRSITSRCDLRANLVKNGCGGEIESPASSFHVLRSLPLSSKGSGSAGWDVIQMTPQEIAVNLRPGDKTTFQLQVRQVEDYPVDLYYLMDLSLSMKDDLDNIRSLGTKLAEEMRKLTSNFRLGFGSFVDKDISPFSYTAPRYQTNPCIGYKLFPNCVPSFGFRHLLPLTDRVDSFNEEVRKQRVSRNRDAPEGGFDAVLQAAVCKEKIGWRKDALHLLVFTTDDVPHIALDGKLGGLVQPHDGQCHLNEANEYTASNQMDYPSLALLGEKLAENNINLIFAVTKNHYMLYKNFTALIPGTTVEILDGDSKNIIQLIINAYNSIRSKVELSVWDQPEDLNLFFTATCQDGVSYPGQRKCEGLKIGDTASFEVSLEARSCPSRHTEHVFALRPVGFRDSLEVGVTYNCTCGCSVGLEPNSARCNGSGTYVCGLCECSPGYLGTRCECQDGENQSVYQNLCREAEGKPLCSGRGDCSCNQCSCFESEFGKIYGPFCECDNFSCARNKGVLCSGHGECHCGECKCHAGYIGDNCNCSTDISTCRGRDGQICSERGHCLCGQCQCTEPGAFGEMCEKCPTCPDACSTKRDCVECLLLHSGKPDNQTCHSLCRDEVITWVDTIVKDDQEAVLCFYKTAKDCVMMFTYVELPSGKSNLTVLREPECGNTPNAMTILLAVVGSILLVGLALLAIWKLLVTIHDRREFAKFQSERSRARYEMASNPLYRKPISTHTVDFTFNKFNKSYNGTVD

For `NCCNC(=O)c1ccc(C(=O)NC[C@H](NS(=O)(=O)c2ccccc2)C(=O)O)s1` [Compound X, (2S)2-Benzenesulfonylamino-3-[5-(2-amino-ethylcarbamoyl)-thiophen-2-carbonyl]-amino propionic acid trifluoroacetic acid salt], the half-maximal inhibitory concentration (IC50) in experiment [1], in [2] and in experiment [3] was more than 10 µM throughout.
For `Cl.N=C(N)NCCNC(=O)c1ccc(C(=O)NC[C@H](NS(=O)(=O)c2ccccc2)C(=O)O)o1` [Compound XXI], the “% of inhibition at 33 μg/mesh in the presence of VEGF” value (from here on “% of inhibition at 33 μg/mesh”) in experiment [4] turned out to be 32%.
Take `CO[C@@H]1[C@H](OC(=O)NC(=O)CCl)CC[C@]2(CO2)[C@H]1[C@@]1(C)O[C@@H]1CC=C(C)C` [AGM-1470, chloroacetyl-(3R,4S,5S,6R)-5-methoxy-4-[(2R,3R)-2-methyl-3-(3-methyl-2-butenyl)oxiranyl]-1-oxaspiro[2.5]oct-6-yl ester carbamic acid, reference compound]: in experiment [5], the “Incidence of lung metastasis” value is given as 3/10 and the “Incidence of lymph node metastasis” value was 1/10.
As to `N=C(N)NCCCNC(=O)c1ccc(C(=O)NC(CC(=O)O)c2ccccc2)s1` (stereo not drawn) [Compound VIII, 3-{[5-(3-guanidino-propylcarbamoyl)-thiophene-2-carbonyl]-amino}-3-phenyl-propionic acid], the IC50 was 3.2 µM in experiment [6], 5.9 µM in experiment [7], more than 10 µM in experiment [8] and more than 10 µM in experiment [9]. In addition, in [4], the “% of inhibition at 33 μg/mesh” value is on record as 36%.
Regarding `NNC(=O)c1ccc(C(=O)NC[C@H](NS(=O)(=O)c2ccccc2)C(=O)O)s1.O=C(O)C(F)(F)F` [Compound XVIII, 2S-Benzenesulfonylamino-3-[(5-hydrazinocarbonyl-thiophene-2-carbonyl)-amino]-3-propionic acid trifluoroacetate], the “% of inhibition at 33 μg/mesh” value in [4] was 20%.
As to `N=C(N)NNC(=O)c1ccc(C(=O)NC[C@H](NS(=O)(=O)c2ccccc2)C(=O)O)s1.O=C(O)C(F)(F)F` [Compound XIX, 2S-Benzenesulfonylamino-3-[(5-guanidino-aminocarbonyl-thiophene-2-carbonyl)-amino]-3-propionic acid trifluoroacetate], the half-inhibitory concentration (IC50) is 1.3 µM in [1] and more than 10 µM in [3]. The “% of inhibition at 33 μg/mesh” value in experiment [4] came out at 8%.
